# Assay results reported in the NIST ThermoML archive (doi:10.1016/j.jct.2006.05.004).
# ± gives the expanded uncertainty stated by the source.
# Legend:
# [1] = xn = mol fraction of the nth substance listed; conditions: 298.15 K, 101 kPa, Liquid
# [2] = excess molar enthalpy (molar enthalpy of mixing); xn = mol fraction of the nth substance listed; conditions: 298.15 K, 101 kPa, Liquid
smiles,measurement,setting,value
"BrCCCCBr [1,4-dibromobutane] + CCCCC(=O)OC",mass density,[1]; x2 = 0.0627,1757.47 ± 6.4 kg/m3
same,mass density,[1]; x2 = 0.1071,1711.91 ± 6 kg/m3
same,mass density,[1]; x2 = 0.1637,1654.55 ± 5.4 kg/m3
same,mass density,[1]; x2 = 0.2171,1601.18 ± 4.9 kg/m3
same,mass density,[1]; x2 = 0.3252,1495.18 ± 4 kg/m3
same,mass density,[1]; x2 = 0.4423,1383.13 ± 3.1 kg/m3
same,mass density,[1]; x2 = 0.5031,1326.06 ± 2.7 kg/m3
same,mass density,[1]; x2 = 0.621,1217.29 ± 2 kg/m3
same,mass density,[1]; x2 = 0.6839,1160.44 ± 1.6 kg/m3
same,mass density,[1]; x2 = 0.7415,1108.9 ± 1.3 kg/m3
same,mass density,[1]; x2 = 0.8021,1055.26 ± 1.1 kg/m3
same,mass density,[1]; x2 = 0.9296,944.62 ± 0.91 kg/m3
same,excess molar enthalpy,[2]; x2 = 0.0592,0.0081 ± 0.000502 kcal/mol
same,excess molar enthalpy,[2]; x2 = 0.1366,0.0138 ± 0.000598 kcal/mol
same,excess molar enthalpy,[2]; x2 = 0.2206,0.0173 ± 0.000645 kcal/mol
same,excess molar enthalpy,[2]; x2 = 0.3061,0.0161 ± 0.000621 kcal/mol
same,excess molar enthalpy,[2]; x2 = 0.3802,0.0125 ± 0.000574 kcal/mol
same,excess molar enthalpy,[2]; x2 = 0.4461,0.00566 ± 0.000454 kcal/mol
same,excess molar enthalpy,[2]; x2 = 0.4526,0.00449 ± 0.000454 kcal/mol
same,excess molar enthalpy,[2]; x2 = 0.4992,-0.00124 ± 0.000382 kcal/mol
same,excess molar enthalpy,[2]; x2 = 0.5566,-0.00686 ± 0.000478 kcal/mol
same,excess molar enthalpy,[2]; x2 = 0.6213,-0.0107 ± 0.000526 kcal/mol
same,excess molar enthalpy,[2]; x2 = 0.6979,-0.0116 ± 0.00055 kcal/mol
same,excess molar enthalpy,[2]; x2 = 0.7947,-0.0115 ± 0.00055 kcal/mol
same,excess molar enthalpy,[2]; x2 = 0.9001,-0.0075 ± 0.000478 kcal/mol
"BrCCCCBr [1,4-dibromobutane] + COC(C)=O",mass density,[1]; x2 = 0.0837,1770.14 ± 6.4 kg/m3
same,mass density,[1]; x2 = 0.1689,1713.04 ± 5.8 kg/m3
same,mass density,[1]; x2 = 0.2373,1664.79 ± 5.3 kg/m3
same,mass density,[1]; x2 = 0.3235,1601.13 ± 4.6 kg/m3
same,mass density,[1]; x2 = 0.3783,1558.38 ± 4.2 kg/m3
same,mass density,[1]; x2 = 0.4433,1505.87 ± 3.8 kg/m3
same,mass density,[1]; x2 = 0.5073,1451.51 ± 3.4 kg/m3
same,mass density,[1]; x2 = 0.5682,1397.42 ± 3 kg/m3
same,mass density,[1]; x2 = 0.6216,1347.79 ± 2.7 kg/m3
same,mass density,[1]; x2 = 0.6771,1293.95 ± 2.3 kg/m3
same,mass density,[1]; x2 = 0.7431,1226.93 ± 1.9 kg/m3
same,mass density,[1]; x2 = 0.8273,1135.92 ± 1.4 kg/m3
same,mass density,[1]; x2 = 0.9151,1033.42 ± 0.94 kg/m3
same,mass density,[1]; x2 = 0.9603,977.5 ± 0.87 kg/m3
same,excess molar enthalpy,[2]; x2 = 0.0848,0.0432 ± 0.00105 kcal/mol
same,excess molar enthalpy,[2]; x2 = 0.1755,0.0741 ± 0.00153 kcal/mol
same,excess molar enthalpy,[2]; x2 = 0.2635,0.0955 ± 0.00184 kcal/mol
same,excess molar enthalpy,[2]; x2 = 0.3449,0.109 ± 0.00206 kcal/mol
same,excess molar enthalpy,[2]; x2 = 0.4161,0.116 ± 0.00217 kcal/mol
same,excess molar enthalpy,[2]; x2 = 0.4816,0.118 ± 0.0022 kcal/mol
same,excess molar enthalpy,[2]; x2 = 0.5389,0.115 ± 0.00215 kcal/mol
same,excess molar enthalpy,[2]; x2 = 0.5872,0.109 ± 0.00206 kcal/mol
same,excess molar enthalpy,[2]; x2 = 0.6316,0.103 ± 0.00196 kcal/mol
same,excess molar enthalpy,[2]; x2 = 0.6695,0.0954 ± 0.00184 kcal/mol
same,excess molar enthalpy,[2]; x2 = 0.7038,0.089 ± 0.00174 kcal/mol
same,excess molar enthalpy,[2]; x2 = 0.755,0.0763 ± 0.00155 kcal/mol
same,excess molar enthalpy,[2]; x2 = 0.8095,0.062 ± 0.00134 kcal/mol
same,excess molar enthalpy,[2]; x2 = 0.8632,0.046 ± 0.0011 kcal/mol
same,excess molar enthalpy,[2]; x2 = 0.9128,0.0316 ± 0.00086 kcal/mol
same,excess molar enthalpy,[2]; x2 = 0.9584,0.0149 ± 0.000621 kcal/mol
"BrCCCCBr [1,4-dibromobutane] + COC=O",mass density,[1]; x2 = 0.0901,1776.76 ± 6.5 kg/m3
same,mass density,[1]; x2 = 0.1948,1721.83 ± 5.8 kg/m3
same,mass density,[1]; x2 = 0.283,1670.26 ± 5.2 kg/m3
same,mass density,[1]; x2 = 0.3632,1619.15 ± 4.7 kg/m3
same,mass density,[1]; x2 = 0.4351,1569.44 ± 4.2 kg/m3
same,mass density,[1]; x2 = 0.5042,1517.68 ± 3.8 kg/m3
same,mass density,[1]; x2 = 0.5678,1466.2 ± 3.4 kg/m3
same,mass density,[1]; x2 = 0.6267,1414.75 ± 3 kg/m3
same,mass density,[1]; x2 = 0.6804,1364.36 ± 2.7 kg/m3
same,mass density,[1]; x2 = 0.7742,1267.13 ± 2.1 kg/m3
same,mass density,[1]; x2 = 0.8172,1217.73 ± 1.8 kg/m3
same,mass density,[1]; x2 = 0.8611,1164.21 ± 1.5 kg/m3
same,mass density,[1]; x2 = 0.8985,1115.55 ± 1.3 kg/m3
same,mass density,[1]; x2 = 0.937,1062.14 ± 1.1 kg/m3
same,mass density,[1]; x2 = 0.9687,1015.8 ± 0.92 kg/m3
same,excess molar enthalpy,[2]; x2 = 0.1163,0.0944 ± 0.00184 kcal/mol
same,excess molar enthalpy,[2]; x2 = 0.2218,0.152 ± 0.00263 kcal/mol
same,excess molar enthalpy,[2]; x2 = 0.3327,0.205 ± 0.00359 kcal/mol
same,excess molar enthalpy,[2]; x2 = 0.4395,0.235 ± 0.00406 kcal/mol
same,excess molar enthalpy,[2]; x2 = 0.518,0.245 ± 0.00406 kcal/mol
same,excess molar enthalpy,[2]; x2 = 0.581,0.243 ± 0.00406 kcal/mol
same,excess molar enthalpy,[2]; x2 = 0.5984,0.241 ± 0.00406 kcal/mol
same,excess molar enthalpy,[2]; x2 = 0.6591,0.226 ± 0.00382 kcal/mol
same,excess molar enthalpy,[2]; x2 = 0.7346,0.196 ± 0.00335 kcal/mol
same,excess molar enthalpy,[2]; x2 = 0.8107,0.155 ± 0.00287 kcal/mol
same,excess molar enthalpy,[2]; x2 = 0.8851,0.104 ± 0.00201 kcal/mol
same,excess molar enthalpy,[2]; x2 = 0.9503,0.0502 ± 0.0012 kcal/mol
"BrCCCCCBr [1,5-dibromopentane] + CCC(=O)OC",mass density,[1]; x2 = 0.0841,1644.47 ± 5.5 kg/m3
same,mass density,[1]; x2 = 0.1537,1602.6 ± 5 kg/m3
same,mass density,[1]; x2 = 0.1671,1594.29 ± 5 kg/m3
same,mass density,[1]; x2 = 0.2971,1510.79 ± 4.1 kg/m3
same,mass density,[1]; x2 = 0.3661,1463.62 ± 3.7 kg/m3
same,mass density,[1]; x2 = 0.4312,1417.3 ± 3.3 kg/m3
same,mass density,[1]; x2 = 0.4903,1373.47 ± 3 kg/m3
same,mass density,[1]; x2 = 0.609,1280.2 ± 2.3 kg/m3
same,mass density,[1]; x2 = 0.6628,1235.27 ± 2 kg/m3
same,mass density,[1]; x2 = 0.716,1189.3 ± 1.7 kg/m3
same,mass density,[1]; x2 = 0.8143,1099.41 ± 1.2 kg/m3
same,mass density,[1]; x2 = 0.864,1051.37 ± 1 kg/m3
same,mass density,[1]; x2 = 0.9561,957.37 ± 0.88 kg/m3
same,excess molar enthalpy,[2]; x2 = 0.0808,0.0283 ± 0.000813 kcal/mol
same,excess molar enthalpy,[2]; x2 = 0.1674,0.0457 ± 0.00108 kcal/mol
same,excess molar enthalpy,[2]; x2 = 0.2542,0.0591 ± 0.00129 kcal/mol
same,excess molar enthalpy,[2]; x2 = 0.3326,0.0658 ± 0.00139 kcal/mol
same,excess molar enthalpy,[2]; x2 = 0.4065,0.068 ± 0.00143 kcal/mol
same,excess molar enthalpy,[2]; x2 = 0.4708,0.0667 ± 0.00141 kcal/mol
same,excess molar enthalpy,[2]; x2 = 0.4974,0.0651 ± 0.00139 kcal/mol
same,excess molar enthalpy,[2]; x2 = 0.5293,0.0628 ± 0.00134 kcal/mol
same,excess molar enthalpy,[2]; x2 = 0.5381,0.0621 ± 0.00134 kcal/mol
same,excess molar enthalpy,[2]; x2 = 0.5791,0.0574 ± 0.00127 kcal/mol
same,excess molar enthalpy,[2]; x2 = 0.584,0.0562 ± 0.00124 kcal/mol
same,excess molar enthalpy,[2]; x2 = 0.6329,0.0509 ± 0.00117 kcal/mol
same,excess molar enthalpy,[2]; x2 = 0.6845,0.0433 ± 0.00105 kcal/mol
same,excess molar enthalpy,[2]; x2 = 0.7383,0.0366 ± 0.000932 kcal/mol
same,excess molar enthalpy,[2]; x2 = 0.7938,0.0284 ± 0.000813 kcal/mol
same,excess molar enthalpy,[2]; x2 = 0.8494,0.0202 ± 0.000693 kcal/mol
same,excess molar enthalpy,[2]; x2 = 0.9053,0.0112 ± 0.00055 kcal/mol
same,excess molar enthalpy,[2]; x2 = 0.955,0.00521 ± 0.000454 kcal/mol
